Experimental data as given in paper PMC6663879, “Biochemical and structural investigations clarify the substrate selectivity of the 2-oxoglutarate oxygenase JMJD6” (The Journal of Biological Chemistry, 2019).
Read-outs that look alike come from different tables or passages of the source.

What was measured:
JMJD6^FL [1] = test: CPMG-edited NMR titration, apparent binding constant of 2OG; design: species or system human; conditions: CPMG-edited 1H NMR (700 MHz), 20 μM 2OG, 200 μM Zn(II), Tris-d11 pH 7.5, titrated with EDTA-treated JMJD6; mean ± S.D. (n = 3); read-out: 2OG KD^app
Protocol: (§1) 20 μM 2OG and 200 μM Zn(II) were mixed in deuterated Tris-d11, pH 7.5, and the ^1H NMR signals for 2OG were recorded at 700 MHz ([39]). […] Typically, a 5–10% error was allowed in the curve-fitting process.
(§2) CPMG displacement experiments used a Bruker AV700 NMR machine, as reported previously ([39]). The PROJECT (Periodic Refocusing of J Evolution by Coherence Transfer)-CPMG sequence (90°x − (τ − 180°y − τ − 90°y − τ − 180°y − τ)n − acquisition) was applied ([56]). […] Water suppression was achieved by presaturation ([57], [58]).

JMJD6^Δ344–403 [2] = test: as above; design: species or system human; conditions: CPMG-edited 1H NMR (700 MHz), 20 μM 2OG, 200 μM Zn(II), Tris-d11 pH 7.5, titrated with EDTA-treated JMJD6; mean ± S.D. (n = 3); read-out: 2OG KD^app
Protocol: as §1, §2

JMJD6^FL [3] = conditions: read-out: 2OG Km^app; standard hydroxylation assay conditions, 2OG varied 0–150 μM, 37 °C, HEPES-KOH pH 8.0; mean ± S.D. (n = 3)
Protocol: (§3) JMJD6 activity was assayed using a reaction mixture of 10 μM purified JMJD6 and 100 μM substrate peptide, at 37 °C in 50 mM HEPES-KOH, pH 8.0, buffer supplemented with 100 μM (NH4)2Fe(SO4)2·6H2O (Sigma), 400 μM L-sodium ascorbate (Sigma), and 500 μM disodium 2OG (Fluka). After 30 min, the reaction was quenched by an equal volume of 1% (v/v) aqueous formic acid (Sigma). In a 96-well MALDI plate (Waters), 0.8 μl of CHCA (α-cyano-4-hydroxycinnamic acid, Aldrich) ([…] in 0.1 ml of CHCA solvent) and 0.6 μl of the quenched mixture were placed in a well. After drying, the samples were analyzed by MALDI-TOF MS using a reported procedure ([59], [60]). The kinetic data obtained thereafter were fitted using GraphPad Prism (GraphPad Software) ([59], [60]).

JMJD6^Δ344–403 [4] = conditions: read-out: 2OG Km^app; standard hydroxylation assay conditions, 2OG varied 0–150 μM, 37 °C, HEPES-KOH pH 8.0; mean ± S.D. (n = 3)
Protocol: as §3

JMJD6^Δ363–403 [5] = biological target: T1, JMJD6^Δ363–403 (Homo sapiens, UniProt Q6NYC1); conditions: read-out: 2OG Km^app; standard hydroxylation assay conditions, 2OG varied 0–150 μM, 37 °C, HEPES-KOH pH 8.0; mean ± S.D. (n = 3)
Protocol: as §3

JMJD6^FL [6] = conditions: read-out: 2OG Km^app; reported for JMJD6^FL; ref Mantri et al. ([23]); cited from earlier work
JMJD6^Δ363–403 [7] = biological target: T1, JMJD6^Δ363–403; test: CPMG-edited NMR titration, apparent binding constant of 2OG; design: two more variants (aa 1–362, JMJD6^Δ363–403, and aa 1–343, JMJD6^Δ344–403); His6 (N); made in house; host or cells: Escherichia coli Rosetta2(DE3); conditions: CPMG-edited 1H NMR (700 MHz), 20 μM 2OG, 200 μM Zn(II), Tris-d11 pH 7.5, titrated with EDTA-treated JMJD6; mean ± S.D. (n = 3); read-out: 2OG KD^app
Protocol: as §1, §2

O=C(O)CCC(=O)C(=O)O [Peptide 2OG, 2-oxoglutarate]
Kd (JMJD6^FL [1]): 2300 ± 1600 nM | Kd (JMJD6^Δ344–403 [2]): 3500 ± 2100 nM | Km (JMJD6^FL [3]): 31 ± 5.3 µM | Km (JMJD6^Δ344–403 [4]): 45 ± 10 µM | Km (JMJD6^Δ363–403 [5]): 24 ± 5.4 µM | Km (JMJD6^FL [6]): 39 µM | Kd (JMJD6^Δ363–403 [7]): 3000 ± 4800 nM
